Test results taken from patent US20150152070A1, “METHODS OF PEST CONTROL IN SOYBEAN” (Syngenta Participations AG, priority 2012, published 2015).

System: Euschistus heros (Neotropical Brown Stink Bug)
Experiment: Euschistus heros (Neotropical Brown Stink Bug) contact/feeding activity on sprayed soybean plants
Type: in vivo
Details: comparative example, mortality 5 days after infestation
Procedure: Euschistus heros (Neotropical Brown Stink Bug) (Contact/Feeding Activity)
2 week old soybean plants are sprayed in a turn table spray chamber with the diluted spray solutions. After drying, 2 soybean seeds are added and plants are infested with 10 N-2 nymphs of the neotropical brown stink bug Euschistus heros in plastic test boxes. Boxes are incubated in a climate chamber at 25° C. and 60% RH. Evaluation is done 5 days after infestation on mortality.

Compound | Control/% (application rate 3.0 ppm) [%] | Control/% (application rate 12.5 ppm) [%] | Control/% (application rate 50 ppm) [%]
O=C(CC(F)(F)F)NC1CCc2cc(C3=NOC(c4cc(Cl)cc(Cl)c4)(C(F)(F)F)C3)ccc21 (stereo not drawn) [Compound of the invention] | 75 | 100 | 100
O=C(NCC(F)(F)F)N1CCc2cc(C3=NOC(c4cc(Cl)cc(Cl)c4)(C(F)(F)F)C3)ccc21 (stereo not drawn) [Reference compound] | 0 | 0 | 5
